Where two headings read alike, the source gives them in different places.
Key:
[1] = Separation recovery method I, water phase W3 (Zr, Rh sulfates) mixed with kerosine oil phase of the metal extractant; details: maximum amount of metal ions extracted / total amount of the other metal ions extracted, mixing amount 0.7 equivalent
Procedure: (§1) In addition, each of sulfates of a combination of metal ions shown in Table 1-1 was dissolved in ultrapure water to prepare each of metal ion-containing aqueous solutions (W2) and (W3) including two or three kinds of metal ions.
12 mL of the extractant (Y1) with respect to 10 mL of the prepared metal ion-containing aqueous solution (W1) was added to a 30 mL vial tube, and the mixture was stirred using a stirrer tip at 25° C. for 30 minutes. In this case, the mixing amount (unit: equivalent) of the metal extractant with respect to the total content of metal ions to be coordinated (that have the same definition as the extracted metal ions; in Example 1, Co and Ni) was 0.5. […]
Regarding each of the water phases used in Examples and Comparative Examples and the water phases after the extraction, the pH was measured using a pH meter (SK-620 pH II, manufactured by SATOTECH), and each of the contents of dissolved metal ions was determined using an inductively coupled plasma-optical emission spectrometer (ICP-OES) (Optima 7300 D (trade name), manufactured by Perkin Elmer Co., Ltd.). Measured values of the pH of each of the water phases used in Examples and Comparative Examples and the content of dissolved metal ions in each of the water phases are shown in the column “Water Phase pH” of Table 1-2 and the column “Metal Ion Concentration (ppm)” of Table 1-1. […]

[2] = Acid dissociation constant pKa by neutralization titration; assay type: physicochemical; details: for metal extractant II pKa of a conjugate acid
Text: An acid dissociation constant pKa of the metal extractant is not particularly limited, and an appropriate value for the kind, the number, and the like of the coordinating functional groups can be adopted. In the present invention, the pKa is a value measured by neutralization titration.
In the present invention, the pKa is a value measured by neutralization titration.
Regarding the synthesized or prepared metal extractant, the molecular weight and the pKa calculated using the above-described method are shown in Table 1-2.

[3] = Separation recovery method I, water phase W1 (Co, Ni sulfates) mixed with kerosine oil phase of the metal extractant; details: maximum amount of metal ions extracted / total amount of the other metal ions extracted, mixing amount 0.5 equivalent
Procedure: 95.4 g of cobalt (II) sulfate heptahydrate (manufactured by FUJIFILM Wako Pure Chemicals Corporation) and 95.7 g of nickel (II) sulfate heptahydrate (manufactured by FUJIFILM Wako Pure Chemicals Corporation) were added to a 1L measuring flask, were diluted with ultrapure water, and were stirred and dissolved at 30° C. As a result, a metal ion-containing aqueous solution (W1) including two kinds of metal ions was prepared.
(§2) 12 mL of the extractant (Y1) with respect to 10 mL of the prepared metal ion-containing aqueous solution (W1) was added to a 30 mL vial tube, and the mixture was stirred using a stirrer tip at 25° C. for 30 minutes. In this case, the mixing amount (unit: equivalent) of the metal extractant with respect to the total content of metal ions to be coordinated (that have the same definition as the extracted metal ions; in Example 1, Co and Ni) was 0.5. Next, a 10 M sodium hydroxide aqueous solution or a 10 M hydrochloric acid was added to adjust the pH of the mixed solution to a value shown in the column “pH during Mixing” of Table 1-2. Further, the solution was stirred at 25° C. for 30 minutes, and was left to stand at the same temperature for 1 hour. After verifying that the solution was separated into two layers of the organic phase (oil phase) and the water phase, the separated water phase was extracted, and the separation and recovery of the metal ions was performed. The metal ions extracted in Example 1 and the metal ions extracted in the maximum amount are shown in the column “Kind” and the column “Maximum Amount Extracted” of the column “Extracted Metal Ions” in Table 1-2, respectively.
(§3) Separation and recovery of metal ions according to Examples 2 to 4 and 8 and Comparative Examples 1 to 6 and 9 were performed using the same method as that of Example 1, except that the metal ion-containing aqueous solution and the metal extractant solution were changed to a combination shown in Table 1-1 and Table 1-2 (hereinafter, both of which are referred to as Table 1″), the pH during the mixing of the water phase and the oil phase was set to a value shown in the column “pH during Mixing” of Table 1-2, and the mixing amount (unit: equivalent) of the metal extractant with respect to the total content of metal ions to be coordinated was set to a value shown in the column “Mixing Amount” of Table 1-2 for mixing and standing. The metal ions extracted in each of Examples and the metal ions extracted in the maximum amount are shown in the column “Kind” and the column “Maximum Amount Extracted” of the column “Extracted Metal Ions” in Table 1-2, respectively.
Regarding each of the water phases used in Examples and Comparative Examples and the water phases after the extraction, the pH was measured using a pH meter (SK-620 pH II, manufactured by SATOTECH), and each of the contents of dissolved metal ions was determined using an inductively coupled plasma-optical emission spectrometer (ICP-OES) (Optima 7300 D (trade name), manufactured by Perkin Elmer Co., Ltd.). Measured values of the pH of each of the water phases used in Examples and Comparative Examples and the content of dissolved metal ions in each of the water phases are shown in the column “Water Phase pH” of Table 1-2 and the column “Metal Ion Concentration (ppm)” of Table 1-1. The maximum amount (ppm) of the metal ions extracted measured as described above was divided by the total amount (ppm) of the other metal ions extracted to calculate a ratio between the amounts thereof extracted. […]

[4] = Separation recovery method I, water phase W2 (Mn, Co, Ni sulfates) mixed with kerosine oil phase of the metal extractant; details: for Selection Ratio: W2, maximum amount of metal ions extracted / total amount of the other metal ions extracted, mixing amount 0.4 equivalent
Procedure: as §1, §2, §3
(§4) Regarding each of the water phases used in Examples and Comparative Examples and the water phases after the extraction, the pH was measured using a pH meter (SK-620 pH II, manufactured by SATOTECH), and each of the contents of dissolved metal ions was determined using an inductively coupled plasma-optical emission spectrometer (ICP-OES) (Optima 7300 D (trade name), manufactured by Perkin Elmer Co., Ltd.). Measured values of the pH of each of the water phases used in Examples and Comparative Examples and the content of dissolved metal ions in each of the water phases are shown in the column “Water Phase pH” of Table 1-2 and the column “Metal Ion Concentration (ppm)” of Table 1-1. The maximum amount (ppm) of the metal ions extracted measured as described above was divided by the total amount (ppm) of the other metal ions extracted to calculate a ratio between the amounts thereof extracted. The result is shown in the column “Selection Ratio” of Table 1-2.

[5] = Separation recovery method II, water phase W4 (Co, Ni sulfates with lithium chloride) mixed with kerosine oil phase of the metal extractant; details: for Selection Ratio: W4, maximum amount of metal ions extracted / total amount of the other metal ions extracted, mixing amount 0.5 equivalent
Procedure: 200 g of lithium chloride (manufactured by FUJIFILM Wako Pure Chemical Corporation), 95.4 g of cobalt (II) sulfate heptahydrate (manufactured by FUJIFILM Wako Pure Chemicals Corporation), and 95.7 g of nickel (II) sulfate heptahydrate (manufactured by FUJIFILM Wako Pure Chemicals Corporation) were added to a 1L measuring flask, were diluted with ultrapure water, and were stirred and dissolved at 30° C. As a result, a metal ion-containing aqueous solution (W4) including two kinds of metal ions was prepared. In this aqueous solution, in the two kinds of metal ions (cobalt and nickel), complex ions to which halide ions were coordinated were formed.
12 mL of the extractant (Y3) with respect to 10 mL of the prepared metal ion-containing aqueous solution (W4) was added to a 30 mL vial tube, and the mixture was stirred using a stirrer tip at 25° C. for 30 minutes. In this case, the mixing amount (unit: equivalent) of the metal extractant to the total content of the metal ions was 0.5. Next, a 10 M sodium hydroxide aqueous solution or a 10 M hydrochloric acid was added to adjust the pH of the mixed solution to a value shown in the column “pH during Mixing” of Table 1-2. Further, the solution was stirred at 25° C. for 30 minutes, and was left to stand at the same temperature for 1 hour. After verifying that the solution was separated into two layers of the organic phase (oil phase) and the water phase, the separated water phase was extracted, and the separation and recovery of the metal ions was performed. The metal ions extracted in Example 5 and the metal ions extracted in the maximum amount are shown in the column “Kind” and the column “Maximum Amount Extracted” of the column “Extracted Metal Ions” in Table 1-2, respectively.
The separation and recovery of the metal ions according to Examples 6 and 7 and Comparative Examples 7 and 8 was performed using the same method as that of Example 5, except that the metal ion-containing aqueous solution and the extractant solution were changed to a combination shown in Table 1-2, and the pH during the mixing of the water phase and the oil phase was set to a value shown in the column “pH during Mixing” of Table 1 for mixing and standing. The metal ions extracted in each of Examples and the metal ions extracted in the maximum amount are shown in the column “Kind” and the column “Maximum Amount Extracted” of the column “Extracted Metal Ions” in Table 1-2, respectively.
as §4

[6] = room temperature, concentration 310 mM
Procedure: Each of the synthesized or prepared metal extractants was added to a 100 mL measuring flask, and was diluted using kerosine (manufactured by FUJIFILM Wako Pure Chemicals Corporation) at room temperature. As a result, metal extractant solutions (Y1) to (Y6) and (Ycl) to (Yc9) (concentration: 310 mM) including the metal extractants were prepared, respectively.

Molecule | pKa ([2]; read-out: pKa) | Selection Ratio [3] | Selection Ratio [4] | Selection Ratio [5] | also measured
CCCCC(CC)CC(C(=O)O)N(CCN(CC(CC)CCCC)C(CC(CC)CCCC)C(=O)O)CC(CC)CCCC (stereo not drawn) [E-1] | 6.1 | 10 | 20 |  | Selection Ratio [1]: 6.7
CCCCC(CC)CCC(C(=O)O)N(CCN(CC(CC)CCCC)C(CCC(CC)CCCC)C(=O)O)CC(CC)CCCC (stereo not drawn) [E-2] | 6.3 | 4.0 |  |  | 
CCCCC(CC)CN(CCN(CC(CC)CCCC)CC(CC)CCCC)CC(CC)CCCC (stereo not drawn) [E-3] | 11.1 |  |  | 5.0 | 
CCCCCCCCCN(CCCCCCCCC)CCN(CCCCCCCCC)CCCCCCCCC [E-4] | 11.4 |  |  | 3.3 | 
CCCCC(CC)CN(CC(CC)CCCC)CC1CCC(CN(CC(CC)CCCC)CC(CC)CCCC)CC1 (stereo not drawn) [E-5] | 11.5 |  |  | 4.0 | 
CCCCC(CC)CN(CCN(CC(CC)CCCC)C(CCCOCCOC)C(=O)O)C(CCCOCCOC)C(=O)O (stereo not drawn) [E-6] | 6.2 | 5.0 |  |  | 
O=C(O)CN(CCN(CC(=O)O)CC(=O)O)CC(=O)O [EDTA, ethylenediaminetetraacetic acid] | 0.9 |  |  |  | extraction of metal ions to the oil phase ([4]; W2, in words): not able to be extracted; dissolution in kerosine [6]: not able to be dissolved in kerosine
CCCCC(CC)COP(=O)(O)CC(CC)CCCC (stereo not drawn) [PC-88A, mono-2-ethylhexyl(2-Ethylhexyl)phosphonate] |  |  | 1.4 |  | selectivity of the Mn ions extracted in the maximum amount ([4]; W2, in words): low
CCCCC(CC)CN(CC(CC)CCCC)C(=O)CN(CCN(CC(=O)O)CC(=O)N(CC(CC)CCCC)CC(CC)CCCC)CC(=O)O (stereo not drawn) [T-1] | 6 |  | 0.5 |  | selectivity of the Mn ions extracted in the maximum amount ([4]; W2, in words): low
CCCCC(CC)CN(CC(CC)CCCC)C(=O)CNCC(=O)O (stereo not drawn) [T-2] | 5.2 |  | 0.6 |  | 
CCCCC(CC)CC(OCCOC(CC(CC)CCCC)C(=O)O)C(=O)O (stereo not drawn) [T-3] | 5.8 | 1.1 |  |  | 
CCCCC(CC)COCCOCC(CC)CCCC (stereo not drawn) [T-4] | 13.4 |  |  | 1.5 | amount of the metal ions extracted in the maximum amount ([5]; W4, in words): not sufficient
CCCCC(CC)CC(C(=O)O)N(CCC(C)SC)CCN(CCC(C)SC)C(CC(CC)CCCC)C(=O)O (stereo not drawn) [T-5] | 6.1 | 1.2 |  |  | 
CCCCC(CC)CN(CC(CC)CCCC)CC(CC)CCCC (stereo not drawn) [Tris-2-EHA, tris(2-ethylhexyl)amine] | 5.2 |  |  | 1.5 | 
Versatic acid 10 [VA-10] |  |  | 0.7 |  | pKa [2]: 7.9; selectivity of the Mn ions extracted in the maximum amount ([4]; W2, in words): low

— US20250243560A1, “METAL EXTRACTANT AND SEPARATION RECOVERY METHOD OF METAL IONS USING METAL EXTRACTANT” (FUJIFILM Corporation, priority 2022, published 2025)
